Columns and labels:
Human secretory PLA2 = target: T1, Human secretory PLA2 (Homo sapiens, UniProt P14555); test: Secretory PLA2 inhibitory activity (diheptanoyl thio PC substrate, absorbance at 405 nm); type: biochemical; details: diheptanoyl thio PC 1 mM, Triton X100 0.3 mM, pH 7.3, CaCl2 10 mM, 30 minutes, read-out: s-PLA2 Inhibition IC50
T1 sequence (P14555 21-144): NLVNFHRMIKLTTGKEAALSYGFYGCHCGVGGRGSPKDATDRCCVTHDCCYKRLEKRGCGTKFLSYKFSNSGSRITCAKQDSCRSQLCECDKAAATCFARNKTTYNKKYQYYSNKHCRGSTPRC
Procedure: Secretory PLA2 activity was assayed according to the method described in Penynolds L. J., Hughes L. L., Dennis E. A. et al. Anal. Biochem. 201,190-197 (1992).
Diheptanoyl thiophosphatidylcholine which was prepared according to the procedure described in the literature was used as a substrate. Human secretory PLA2 was used as an enzyme. The diheptanoyl thio PC (1 mM) was reacted with the human secretory PLA2 in the presence of Triton X100 (0.3 mM) and 5,5'-dithiobis-(2-nitrobenzoic acid) (125 μM) in Tris buffer (25 mM, pH 7.3), CaCl2 (10 mM), KCI (100 mM), bovine serum albumin (1.0 mg/ml), and then the change in absorbance at 405 nm at the time of 30 minutes after the reaction was assayed.
Inhibitory activity (%) was estimated by the formula: [(the change in absorbance with the inhibitor and PLA2 ·the change in absorbance with the inhibitor and without PLA2)/(the change in absorbance without the inhibitor and with PLA2 ·the change in absorbance without the inhibitor and PLA2)]×100.
IC50 value (μM) was calculated from graph showing inhibitory values on the vertical axis and log of concentrations of the inhibitor on the horizontal axis.

[1] = target: T2, intracellular PLA2 (cytosolic PLA2, cPLA2) (Homo sapiens, UniProt P47712); test: Intracellular PLA2 (cPLA2) inhibitory activity (14C-arachidonyl phosphatidylcholine substrate); type: biochemical; details: 2 μM radiolabelled phosphatidylcholine, 1 μM dioleoylglycerol, 1 mM CaCl2, pH 7.4; read-out: c-PLA2 Inhibition IC50
T2 sequence (P47712 1-749): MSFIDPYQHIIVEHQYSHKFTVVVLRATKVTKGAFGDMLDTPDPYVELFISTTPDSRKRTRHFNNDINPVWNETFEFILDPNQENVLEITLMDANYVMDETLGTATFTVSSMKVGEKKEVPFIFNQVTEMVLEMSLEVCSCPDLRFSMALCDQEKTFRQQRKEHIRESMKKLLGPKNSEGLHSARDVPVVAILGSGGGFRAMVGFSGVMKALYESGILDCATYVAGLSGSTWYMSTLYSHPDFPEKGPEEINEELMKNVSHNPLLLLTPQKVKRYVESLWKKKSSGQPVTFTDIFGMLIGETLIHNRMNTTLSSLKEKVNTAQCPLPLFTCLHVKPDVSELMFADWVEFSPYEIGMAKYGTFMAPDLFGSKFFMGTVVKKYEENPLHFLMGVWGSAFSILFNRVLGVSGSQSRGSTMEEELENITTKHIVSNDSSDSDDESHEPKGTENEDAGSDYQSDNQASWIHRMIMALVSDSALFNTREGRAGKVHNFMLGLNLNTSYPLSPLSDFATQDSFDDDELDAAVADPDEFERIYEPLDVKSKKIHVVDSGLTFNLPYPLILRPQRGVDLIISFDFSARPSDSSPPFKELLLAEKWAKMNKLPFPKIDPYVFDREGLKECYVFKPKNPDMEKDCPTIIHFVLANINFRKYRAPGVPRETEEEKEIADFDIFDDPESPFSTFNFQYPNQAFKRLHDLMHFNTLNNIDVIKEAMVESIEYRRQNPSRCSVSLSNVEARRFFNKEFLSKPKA
Procedure: cPLA2 activity was assayed according to the method described in R. M. Kramer, E. F. Roberts, J. Manetta and J. E. Putnam, J. Biol. Chem., 268 (8), 5268-5272 (1991). Briefly, intracellular PLA2 activity was assayed using supersonic treated […] which contain 1-palmitoyl-2-[^14 C]arachidonyl-sn-glycero-3-phosphocholine and sn-1, 2-dioleoylglycerol at a molar ratio of 2:1. This test mixture contained 1 mM CaCl2, 2 mM dithiothreitol, 150 mM NaCl, 50 mM Hepes, pH 7.4 and 0.1 mg/ml BSA. A substrate is a 2 μM radioisotope labelled phosphatidylcholine ribosome containing 1 μM dioleoylglycerol. IC50 value is calculating in the same manner as in calculating it for secretory PLA2 inhibitory activity.

Row | Structure (SMILES) | IC50 (Human secretory PLA2) [µM] | IC50 [1] [µM]
1 | COc1c(C)c(OC(=O)c2c(C)c(C)c(OCCCN(C)S(=O)(=O)c3ccccc3)c(C)c2OC)c(C)c(C)c1C(=O)O [Example 53] | 6 | 20
2 | COc1c(C)c(OC(=O)c2c(C)c(C)c(OCCC(C)CCCC(C)C)c(C)c2OC)c(C)c(C)c1C(=O)O (stereo not drawn) [Example 50, 4-[4-(3,7-Dimethyloctyloxy)-2-methoxy-3,5,6-trimethylbenzoyloxy]-2-methoxy-3,5,6-trimethylbenzoic Acid] | 50 | 3
3 | COc1cccc(OC)c1OCCCOc1c(C)c(C)c(C(=O)Oc2c(C)c(C)c(C(=O)O)c(OC)c2C)c(OC)c1C [Example 40, 4-{4-[3-(2,6-Dimethoxyphenoxy)propoxy]-2-methoxy-3,5,6-trimethylbenzoyloxy}-2-methoxy-3,5,6-trimethylbenzoic Acid] | 6.1 | 13
4 | COc1c(C)c(OC(=O)c2c(C)c(C)c(OCc3ccc(F)cc3)c(C)c2OC)c(C)c(C)c1C(=O)O [Example 8, 4-[4-(4-Fluorobenzyloxy)-2-methoxy-3,5,6-trimethylphenylcarboxy]-2-methoxy-3,5,6-trimethylbenzoic acid] | 22 | 31
5 | COC(=O)c1ccc(OCCCOc2c(C)c(C)c(C(=O)Oc3c(C)c(C)c(C(=O)O)c(OC)c3C)c(OC)c2C)cc1 [Example 43, 4-{4-[3-(4-Methoxycarbonylphenoxy)propoxy]-2-methoxy-3,5,6-trimethylbenzoyloxy}-2-methoxy-3,5,6 trimethylbenzoic Acid] | 5.1 | 14
6 | COC(=O)c1ccc(OCCCOc2c(C)c(C)c(C(=O)Oc3c(C)c(C)c(C(N)=O)c(OC)c3C)c(OC)c2C)cc1 [Example 46, 4-{4-[3-(4-Methoxycarbonylphenoxy)propoxy]-2methoxy-3,5,6-trimethylbenzoyloxy}-2-methoxy-3,5,6 trimethylbenzamide] | 0.74 | > 50
7 | COc1c(C)c(OC(=O)c2c(C)c(C)c(OCCC=C(c3ccccc3)c3ccccc3)c(C)c2OC)c(C)c(C)c1C(=O)O [Example 48, 4-[4-(4,4-Diphenylbut-3-enyloxy)-2-methoxy-3,5,6-trimethylbenzoyloxy]-2-methoxy-3,5,6-trimethylbenzoic Acid] | 12 | 3

Now from value to compound:

Row | IC50 (Human secretory PLA2) [µM] | IC50 [1] [µM] | Structure (SMILES)
8 | 26 | 12 | COc1c(C)c(OC(=O)c2c(C)c(C)c(OCCCOc3ccccc3F)c(C)c2OC)c(C)c(C)c1C(=O)O [Example 33, 4-{4-[3-(2-Fluorophenoxy)propoxy]-2-methoxy-3,5,6-trimethylbenzoyloxy}-2-methoxy-3,5,6-trimethylbenzoic Acid]
9 | 6.9 | 10 | COc1c(C)c(OC(=O)c2c(C)c(C)c(OCCCOc3ccc4c(c3)OCO4)c(C)c2OC)c(C)c(C)c1C(=O)O [Example 28, 4-{4-[3-(Benzo[1, 3]dioxol-5-yloxy)propoxy]-2-methoxy-3,5,6-trimethylbenzoyloxy}-2-methoxy-3,5,6-trimethylbenzoic Acid]
10 | 10 | 38 | COc1c(C)c(OC(=O)c2c(C)c(C)c(OCCCOc3ccc(C(=O)O)cc3)c(C)c2OC)c(C)c(C)c1C(=O)O [Example 32, 4-{4-[3-(4-Carboxyphenoxy)propoxy]-2-methoxy-3,5,6-trimethylbenzoyloxy}-2-methoxy-3,5,6-trimethylbenzoic Acid]
11 | 50 | 9.7 | COc1c(C)c(OC(=O)c2c(C)c(C)c(OCCCOc3cccc(F)c3)c(C)c2OC)c(C)c(C)c1C(=O)O [Example 34, 4-{4-[3-(3-Fluorophenoxy)propoxy]-2-methoxy-3,5,6-trimethylbenzoyloxy}-2-methoxy-3,5,6-trimethylbenzoic Acid]
12 | 0.94 | 9.3 | COc1c(C)c(OC(=O)c2c(C)c(C)c(OCCCOc3ccc(F)cc3)c(C)c2OC)c(C)c(C)c1C(N)=O [Example 44, 4-{4-[3-(4-Fluorophenoxy)propoxy]-2-methoxy-3,5,6-trimethylbenzoyloxy}-2-methoxy-3,5,6-trimethylbenzamide]

Source: patent publication US5534533A, “Carboxylate derivatives exhibiting phospholipase A2 inhibitory activity” (Shionogi & Co., Ltd., priority 1993, dated 1996)
